{"source": "patent US20260345723A1", "about": "“Treatments for Opioid-Induced Respiratory Depression” (priority 2023, published 2026)", "key": {"CXCR4 [1]": {"tested_on": "CXCR4", "details": "cited from earlier work"}, "CCR2 [2]": {"tested_on": "CCR2", "details": "selective CCR2 receptor antagonists, mice; cited from earlier work"}, "CCR2 [3]": {"tested_on": "CCR2", "details": "pretreatment with CCR2 antagonist; cited from earlier work"}, "tolerance to morphine": {"tested_on": "tolerance to morphine", "details": "in vivo; cited from earlier work"}, "chemokine release": {"tested_on": "chemokine release", "details": "cited from earlier work"}, "[4]": {"tested_on": "morphine-induced respiratory depression", "details": "rat, in vivo"}, "CCR2 [5]": {"tested_on": "CCR2", "details": "rat, in vivo"}, "CXCR4 [6]": {"tested_on": "CXCR4", "details": "rat, in vivo"}, "CCR5 [7]": {"tested_on": "CCR5", "details": "rat, in vivo"}, "[8]": {"tested_on": "mu-opioid receptor (OPRM1)", "details": "rat, in vivo"}, "GFAP mRNA": {"tested_on": "GFAP mRNA", "details": "rat, in vivo"}, "IBA1 mRNA": {"tested_on": "IBA1 mRNA", "details": "rat, in vivo"}, "CXCR4 [9]": {"tested_on": "CXCR4", "details": "pretreatment, hypoxic neonatal rats; cited from earlier work"}, "CCR5 [10]": {"tested_on": "CCR5", "details": "CCR5 antagonist, rats; cited from earlier work"}, "CCR5 [11]": {"tested_on": "CCR5", "details": "cited from earlier work"}}}
{"compound": "c1cc(CN2CCCNCCNCCCNCC2)ccc1CN1CCCNCCNCCCNCC1", "note": "[AMD3100]", "values": [{"measurement": "CXCR4 antagonism", "setting": "CXCR4 [1]", "value": "antagonist of CXCR4"}, {"measurement": "mobilization of hematopoietic stem cells", "setting": "CXCR4 [1]", "value": "mobilize hematopoietic stem cells"}]}
{"compound": "COc1ccc(C2(O)CCC(N3CC[C@@H](NC(=O)CNC(=O)c4cccc(C(F)(F)F)c4)C3)CC2)cn1", "note": "(stereo partly shown) [INCB 3284]", "values": [{"measurement": "methamphetamine-induced place conditioning", "setting": "CCR2 [2]", "value": "reduce"}]}
{"compound": "Cc1ccc2c(c1)C1(CCN(CCc3nc(-c4ccccc4)oc3C)CC1)OC(=O)N2", "note": "[RS504393]", "values": [{"measurement": "methamphetamine-induced place conditioning", "setting": "CCR2 [2]", "value": "reduce"}]}
{"compound": "O=C1Nc2ccccc2C2(CCN(CCc3ccc(C(F)(F)F)cc3)CC2)O1", "note": "[RS-102895]", "values": [{"measurement": "inflammation caused by CCL2", "setting": "CCR2 [3]", "value": "inhibited"}]}
{"compound": "CN(C)c1ccc(O)c2c1C[C@H]1C[C@H]3[C@H](N(C)C)C(O)=C(C(N)=O)C(=O)[C@@]3(O)C(O)=C1C2=O", "note": "[minocycline]", "values": [{"measurement": "tolerance to morphine", "setting": "tolerance to morphine", "value": "attenuates tolerance to morphine"}, {"measurement": "chemokine release", "setting": "chemokine release", "value": "inhibits chemokine release"}]}
{"compound": "CN1CC[C@]23c4c5ccc(O)c4O[C@H]2[C@@H](O)C=C[C@H]3[C@H]1C5", "note": "[morphine, reference compound]", "values": [{"measurement": "SpO2 (oxygen saturation)", "setting": "[4]", "value": "under 90%"}, {"measurement": "cumulative SpO2", "setting": "[4]", "value": "significantly reduced SpO2"}, {"measurement": "cumulative respiratory rate", "setting": "[4]", "value": "significantly increased respiratory rate"}, {"measurement": "CCR2 protein levels, NAC", "setting": "CCR2 [5]", "value": "significantly reduced CCR2 protein levels"}, {"measurement": "CCR2 protein levels, PFC", "setting": "CCR2 [5]", "value": "significantly enhanced CCR2 protein levels"}, {"measurement": "CCR2 protein levels, VTA", "setting": "CCR2 [5]", "value": "significantly enhanced CCR2 protein levels"}, {"measurement": "CXCR4 protein levels, VTA", "setting": "CXCR4 [6]", "value": "significantly enhanced CXCR4 protein levels"}, {"measurement": "CCR5 protein levels, NAC", "setting": "CCR5 [7]", "value": "significantly reduced CCR5 protein levels"}, {"measurement": "CCR5 protein levels, VTA", "setting": "CCR5 [7]", "value": "did not significantly change"}, {"measurement": "OPRM1 protein levels, VTA", "setting": "[8]", "value": "significantly increased OPRM1 protein levels"}, {"measurement": "GFAP mRNA levels, NAC", "setting": "GFAP mRNA", "value": "significantly enhanced"}, {"measurement": "GFAP mRNA levels, VTA and PFC", "setting": "GFAP mRNA", "value": "no significant changes were detected"}, {"measurement": "microglial gene expression, VTA, NAC, PFC", "setting": "IBA1 mRNA", "value": "not altered"}]}
{"compound": "dexamethasone", "values": [{"measurement": "CXCR4 receptors", "setting": "CXCR4 [9]", "value": "downregulates CXCR4 receptors"}, {"measurement": "neuroprotection", "setting": "CXCR4 [9]", "value": "induces neuroprotection"}]}
{"compound": "maraviroc", "values": [{"measurement": "locomotor-activating effects of cocaine", "setting": "CCR5 [10]", "value": "reduce"}, {"measurement": "rewarding efficacy of cocaine", "setting": "CCR5 [10]", "value": "reduce"}, {"measurement": "HIV entry into cells that express CCR5", "setting": "CCR5 [11]", "value": "inhibits the entry"}]}
